Test results from the NIST ThermoML archive (doi:10.1016/j.jct.2018.04.018).
Several values for one entry are separate records, joined by “and”; a condition that tells them apart may be missing. Identical values can stand only once. Numbers after ± are expanded uncertainties.

Settings: 101.33 kPa, Liquid

CCCCCCCC[n+]1ccn(C)c1.F[P-](F)(F)(F)(F)F [1-octyl-3-methylimidazolium hexafluorophosphate]
Settings | mass density [kg/m3] | viscosity
369.26 K, Cone and plate viscometry | – | 26.6 ± 1.1 mPa·s
369.99 K, Cone and plate viscometry | – | 26 ± 1.1 mPa·s and 26.4 ± 1.1 mPa·s
370.73 K, Cone and plate viscometry | – | 25.4 ± 1 mPa·s and 25.8 ± 1.1 mPa·s
371.47 K, Cone and plate viscometry | – | 25.2 ± 1 mPa·s
371.49 K, Cone and plate viscometry | – | 24.8 ± 1 mPa·s
372.22 K, Cone and plate viscometry | – | 24.8 ± 1 mPa·s
372.23 K, Cone and plate viscometry | – | 24.3 ± 1 mPa·s
372.96 K, Cone and plate viscometry | – | 24.3 ± 1 mPa·s
372.97 K, Cone and plate viscometry | – | 24.4 ± 1 mPa·s
373.15 K, Concentric cylinders viscometry | – | 24 ± 0.5 mPa·s
373.15 K, Vibrating tube method | 1181.63 ± 2.9 | –
373.71 K, Cone and plate viscometry | – | 23.3 ± 1 mPa·s and 23.7 ± 1 mPa·s
374.44 K, Cone and plate viscometry | – | 23.1 ± 0.9 mPa·s
374.45 K, Cone and plate viscometry | – | 22.9 ± 0.9 mPa·s
375.19 K, Cone and plate viscometry | – | 22.4 ± 0.9 mPa·s and 22.6 ± 0.9 mPa·s
375.94 K, Cone and plate viscometry | – | 22.1 ± 0.9 mPa·s and 22.3 ± 0.9 mPa·s
376.68 K, Cone and plate viscometry | – | 21.9 ± 0.9 mPa·s
376.69 K, Cone and plate viscometry | – | 22 ± 0.9 mPa·s
377.41 K, Cone and plate viscometry | – | 21.8 ± 0.9 mPa·s
377.42 K, Cone and plate viscometry | – | 21.6 ± 0.9 mPa·s
378.16 K, Cone and plate viscometry | – | 21.1 ± 0.9 mPa·s
378.9 K, Cone and plate viscometry | – | 20.7 ± 0.8 mPa·s
378.91 K, Cone and plate viscometry | – | 20.6 ± 0.8 mPa·s
379.64 K, Cone and plate viscometry | – | 20.3 ± 0.8 mPa·s
379.65 K, Cone and plate viscometry | – | 20.4 ± 0.8 mPa·s
380.39 K, Cone and plate viscometry | – | 19.7 ± 0.8 mPa·s and 19.9 ± 0.8 mPa·s
381.13 K, Cone and plate viscometry | – | 19.6 ± 0.8 mPa·s
381.14 K, Cone and plate viscometry | – | 19.4 ± 0.8 mPa·s
381.87 K, Cone and plate viscometry | – | 19.2 ± 0.8 mPa·s
381.88 K, Cone and plate viscometry | – | 19 ± 0.8 mPa·s
382.62 K, Cone and plate viscometry | – | 18.5 ± 0.8 mPa·s and 18.7 ± 0.8 mPa·s
383.35 K, Cone and plate viscometry | – | 18.2 ± 0.7 mPa·s
383.36 K, Cone and plate viscometry | – | 18.4 ± 0.7 mPa·s
384.1 K, Cone and plate viscometry | – | 18.2 ± 0.7 mPa·s
384.11 K, Cone and plate viscometry | – | 17.9 ± 0.7 mPa·s
384.85 K, Cone and plate viscometry | – | 17.7 ± 0.7 mPa·s and 17.9 ± 0.7 mPa·s
385.6 K, Cone and plate viscometry | – | 17.4 ± 0.7 mPa·s and 17.6 ± 0.7 mPa·s
386.33 K, Cone and plate viscometry | – | 16.8 ± 0.7 mPa·s
386.34 K, Cone and plate viscometry | – | 17 ± 0.7 mPa·s
387.07 K, Cone and plate viscometry | – | 16.6 ± 0.7 mPa·s
387.08 K, Cone and plate viscometry | – | 16.8 ± 0.7 mPa·s
387.82 K, Cone and plate viscometry | – | 16.5 ± 0.7 mPa·s and 16.7 ± 0.7 mPa·s
388.56 K, Cone and plate viscometry | – | 16.6 ± 0.7 mPa·s
388.57 K, Cone and plate viscometry | – | 16.5 ± 0.7 mPa·s
389.3 K, Cone and plate viscometry | – | 16 ± 0.7 mPa·s
389.32 K, Cone and plate viscometry | – | 16.2 ± 0.7 mPa·s
390.04 K, Cone and plate viscometry | – | 15.8 ± 0.7 mPa·s
390.05 K, Cone and plate viscometry | – | 15.6 ± 0.6 mPa·s
390.79 K, Cone and plate viscometry | – | 15.3 ± 0.6 mPa·s and 15.5 ± 0.6 mPa·s
391.53 K, Cone and plate viscometry | – | 15.4 ± 0.6 mPa·s
391.54 K, Cone and plate viscometry | – | 15.1 ± 0.6 mPa·s
392.26 K, Cone and plate viscometry | – | 14.7 ± 0.6 mPa·s
392.28 K, Cone and plate viscometry | – | 15.2 ± 0.6 mPa·s
393.01 K, Cone and plate viscometry | – | 14.6 ± 0.6 mPa·s
393.02 K, Cone and plate viscometry | – | 14.8 ± 0.6 mPa·s
393.75 K, Cone and plate viscometry | – | 14.5 ± 0.6 mPa·s
393.76 K, Cone and plate viscometry | – | 14.3 ± 0.6 mPa·s
394.5 K, Cone and plate viscometry | – | 14.3 ± 0.6 mPa·s
394.51 K, Cone and plate viscometry | – | 14.2 ± 0.6 mPa·s
395.25 K, Cone and plate viscometry | – | 14.1 ± 0.6 mPa·s
395.26 K, Cone and plate viscometry | – | 14 ± 0.6 mPa·s
395.99 K, Cone and plate viscometry | – | 13.9 ± 0.6 mPa·s and 14 ± 0.6 mPa·s
396.73 K, Cone and plate viscometry | – | 13.7 ± 0.6 mPa·s and 13.9 ± 0.6 mPa·s
397.47 K, Cone and plate viscometry | – | 13.5 ± 0.6 mPa·s
397.48 K, Cone and plate viscometry | – | 13.5 ± 0.6 mPa·s
398.22 K, Cone and plate viscometry | – | 13.2 ± 0.5 mPa·s and 13.4 ± 0.6 mPa·s
398.96 K, Cone and plate viscometry | – | 13 ± 0.5 mPa·s
398.97 K, Cone and plate viscometry | – | 13.1 ± 0.5 mPa·s
399.7 K, Cone and plate viscometry | – | 12.9 ± 0.5 mPa·s and 13 ± 0.5 mPa·s
400.44 K, Cone and plate viscometry | – | 12.9 ± 0.5 mPa·s
400.45 K, Cone and plate viscometry | – | 12.7 ± 0.5 mPa·s
401.19 K, Cone and plate viscometry | – | 12.6 ± 0.5 mPa·s and 12.8 ± 0.5 mPa·s
401.93 K, Cone and plate viscometry | – | 12.3 ± 0.5 mPa·s
401.94 K, Cone and plate viscometry | – | 12.6 ± 0.5 mPa·s
402.67 K, Cone and plate viscometry | – | 12.2 ± 0.5 mPa·s and 12.4 ± 0.5 mPa·s
403.42 K, Cone and plate viscometry | – | 12.1 ± 0.5 mPa·s and 12.3 ± 0.5 mPa·s
404.16 K, Cone and plate viscometry | – | 12 ± 0.5 mPa·s and 12.1 ± 0.5 mPa·s
404.9 K, Cone and plate viscometry | – | 11.7 ± 0.5 mPa·s
404.91 K, Cone and plate viscometry | – | 12 ± 0.5 mPa·s
405.64 K, Cone and plate viscometry | – | 11.5 ± 0.5 mPa·s and 11.6 ± 0.5 mPa·s
406.39 K, Cone and plate viscometry | – | 11.3 ± 0.5 mPa·s and 11.5 ± 0.5 mPa·s
407.13 K, Cone and plate viscometry | – | 11.2 ± 0.5 mPa·s and 11.4 ± 0.5 mPa·s
407.87 K, Cone and plate viscometry | – | 11.3 ± 0.5 mPa·s
407.88 K, Cone and plate viscometry | – | 11.1 ± 0.5 mPa·s
408.62 K, Cone and plate viscometry | – | 10.6 ± 0.4 mPa·s and 10.7 ± 0.4 mPa·s
409.35 K, Cone and plate viscometry | – | 10.4 ± 0.4 mPa·s and 10.5 ± 0.4 mPa·s
410.1 K, Cone and plate viscometry | – | 10.3 ± 0.4 mPa·s and 10.4 ± 0.4 mPa·s
410.84 K, Cone and plate viscometry | – | 10.3 ± 0.4 mPa·s
410.85 K, Cone and plate viscometry | – | 10.2 ± 0.4 mPa·s
411.58 K, Cone and plate viscometry | – | 10.1 ± 0.4 mPa·s
411.59 K, Cone and plate viscometry | – | 10.2 ± 0.4 mPa·s
412.33 K, Cone and plate viscometry | – | 10 ± 0.4 mPa·s and 10.1 ± 0.4 mPa·s
413.07 K, Cone and plate viscometry | – | 9.6 ± 0.4 mPa·s and 9.9 ± 0.4 mPa·s
413.82 K, Cone and plate viscometry | – | 9.6 ± 0.4 mPa·s and 9.7 ± 0.4 mPa·s
